From patent US7666857B2, “2-(3,4-dimethylphenyl)-4-{[2-hydroxy-3′-(1h-tetrazol-5-yl)biphenyl-3-yl]-hydrazono}-5-methyl-2,4-dihydropyrazol-3-one choline” (SmithKline Beecham Corp., priority 2004, dated 2010)

Experiments:
solubility in water = assay type: physicochemical
[1] = in vivo; choline salt compared with the free acid

| solubility in water (solubility in water) | Structure (SMILES) | bioavailability [1] | oral exposure [1] |
| --- | --- | --- | --- |
| poorly soluble | CC1=NN(c2ccc(C)c(C)c2)C(=O)C1=NNc1cccc(-c2cccc(-c3nnn[nH]3)c2)c1O [free acid, 2-(3,4-dimethylphenyl)-4-{[2-hydroxy-3′-(1H-tetrazol-5-yl)biphenyl-3-yl]-hydrazono}-5-methyl-2,4-dihydropyrazol-3-one] |  |  |
|  | CC1=NN(c2ccc(C)c(C)c2)C(=O)/C1=N\Nc1cccc(-c2cccc(-c3nnn[nH]3)c2)c1O [Compound A, 2-(3,4-dimethylphenyl)-4-{[2-hydroxy-3′-(1H-tetrazol-5-yl)biphenyl-3-yl]-hydrazono}-5-methyl-2,4-dihydropyrazol-3-one choline] | enhanced | enhanced |
